According to the NIST ThermoML archive (doi:10.1021/je900405j):
Numbers after ± are expanded uncertainties.

Details: for viscosity: 101.33 kPa, Cone and plate viscometry; for viscosity / surface tension liquid-gas: Liquid; for surface tension liquid-gas: 293 K; for Normal melting temperature: Crystal; for Normal melting temperature / Glass transition temperature: DTA

SMILES	viscosity (290 K)	surface tension liquid-gas	viscosity (295 K)	viscosity (300 K)	viscosity (305 K)	viscosity (310 K)	viscosity (315 K)	viscosity (320 K)	viscosity (325 K)	viscosity (330 K)	viscosity (335 K)	viscosity (340 K)	viscosity (345 K)	viscosity (350 K)	viscosity (355 K)	viscosity (360 K)	viscosity (365 K)	Normal melting temperature	Glass transition temperature
CCC[n+]1ccn(C)c1C.O=S(=O)([N-]S(=O)(=O)C(F)(F)F)C(F)(F)F	131 ± 10 mPa·s	41 ± 6 mN/m	106 ± 10 mPa·s	85 ± 10 mPa·s	69 ± 10 mPa·s	58 ± 10 mPa·s	49 ± 10 mPa·s	42 ± 10 mPa·s	37 ± 10 mPa·s	33 ± 10 mPa·s	29 ± 10 mPa·s	27 ± 10 mPa·s	24 ± 10 mPa·s	23 ± 10 mPa·s	21 ± 10 mPa·s	20 mPa·s	19 mPa·s	8 ± 2 °C	-109 ± 20 °C
CCn1cc[n+](C)c1.N#CN=C=[N-] [1-ethyl-3-methylimidazolium dicyanamide]	24 mPa·s	64 ± 9 mN/m	21 mPa·s	19 mPa·s	18 mPa·s	17 mPa·s	16 mPa·s	15 mPa·s	15 mPa·s	14 mPa·s	14 mPa·s	13 mPa·s	13 mPa·s	12 mPa·s	12 mPa·s	12 mPa·s	12 mPa·s	-18 ± 2 °C	-96 ± 3 °C
CCCC[N+]1(C)CCCC1.FC(F)(F)C(F)(F)[P-](F)(F)(F)(C(F)(F)C(F)(F)F)C(F)(F)C(F)(F)F	355 ± 17 mPa·s	38 ± 5 mN/m	272 ± 14 mPa·s	209 ± 12 mPa·s	163 ± 11 mPa·s	129 ± 10 mPa·s	105 ± 10 mPa·s	87 ± 10 mPa·s	72 ± 10 mPa·s	62 ± 10 mPa·s	53 ± 10 mPa·s	47 ± 10 mPa·s	41 ± 10 mPa·s	37 ± 10 mPa·s	34 ± 10 mPa·s	30 ± 10 mPa·s	28 ± 10 mPa·s	4 ± 2 °C	-116 ± 3 °C
CCn1cc[n+](C)c1.F[B-](F)(F)F [1-ethyl-3-methylimidazolium tetrafluoroborate]	46 ± 10 mPa·s	53 ± 7 mN/m	41 ± 10 mPa·s	32 ± 10 mPa·s	31 ± 10 mPa·s	27 ± 10 mPa·s	24 ± 10 mPa·s	22 ± 10 mPa·s	21 ± 10 mPa·s	19 mPa·s	18 mPa·s	18 mPa·s	16 mPa·s	15 mPa·s	15 mPa·s	15 mPa·s	13 mPa·s		
